Here are results for three molecules from US11771659B2, “Treating disease and promoting weight loss by inhibiting the TMA/FMO3/TMAO pathway” (The Cleveland Clinic Foundation, priority 2017, dated 2023).

The test system of experiment [1] is G protein-coupled receptor trace amine-associated receptor 5 (TAAR5). The note with it: Li et al., 2013; cited from earlier work.
Experiment [2] has as its system male leptin deficient ob/ob mice. The experiment in a line: TMA lyase inhibition in leptin deficient ob/ob mice (Con vs Con+IMC). The following applies: 0.06% IMC in control diet, 16 weeks. The experiment is classed as in vivo. The text has this:
6-week-old male leptin deficient ob/ob mice were maintained on either control diet (Con) or control diet supplemented with 0.06% TMA lyase inhibitor iodomethyl choline (Con+IMC) for 16 weeks. Results are shown in FIG. 7(F-J): F) Plasma TMA and TMAO levels (uM); G) Body weight (g); H) Food consumption normalized to body weight (g of diet consumed per day per g of body weight); I) Glucose tolerance measured after 12 weeks on diet; and J) Mean oxygen consumption (VO2; ml/kg/hr) measured after 5 weeks on diet; n=6 mice/group.
FIG. 8A-F represents data from HFD model and G-K the Ob/Ob model. FIG. 8A,G. Principal co-ordinate analysis (PCoA) plot of microbiota profiles built from weighted Unifrac distances. Each point represents a single sample from a single mouse. Positions of points in space display dissimilarities in the microbiota, with points further from one another being more dissimilar. FIG. 8B,H. Barplot of cecal microbiota at the phylum level. Each bar represents an individual mouse and each color an individual phyla. FIG. 8C. Relative abundance of Firmicutes, Bacteroidetes and the Firmicutes to Baceteroidetes ratio for mice on HFD with or without IMC. […] Points extending beyond the lines are outliers defined as values greater or less than 1.5 times the interquartile range. […] FIG. 8E,J. Spearman's correlation between Akkermansia muciniphila and TMA/body weight. […]

Experiment [3] concerns male C57BL6/J mice on 60% high fat diet. The experiment in a line: TMA lyase inhibition in high fat diet-fed mice (HFD vs HFD+IMC). It counts as in vivo. The note with it: 0.06% IMC in 60% high fat diet, 6-week-old male C57BL6/J mice. The protocol:
6-week-old male C57BL6/J mice were maintained on either 60% high fat diet (HFD) or HFD supplemented with 0.06% TMA lyase inhibitor iodomethyl choline (HFD+IMC) for weeks. Results are shown in FIG. 7 (A-E): A) Plasma TMA and TMAO levels (uM); B) Body weight (g); C) Food consumption normalized to body weight (g of diet consumed per day per g of body weight); D) Glucose tolerance measured after 12 weeks on diet; and E) Plasma insulin measured following an overnight fast (Fasted) or 4 hours postprandially (Fed); n=4-5 mice/group.
To determine the role of TMA and TMAO on diet-induced obesity, cohorts of 6-week-old male C57BL6/J mice fed HFD and HFD+IMC were supplemented with either 100 mM TMA in the drinking water (K-M) or 0.3% w/w TMAO in the diet (N-P). […] FIGS. 7K-P specifically show: K) Plasma TMA and TMAO levels (uM) after 6 weeks on diet and TMA supplementation; L) Body weight (g) over 12 weeks; M) Glucose tolerance measured after 10 weeks on diet and TMA supplementation; N) Plasma TMA and TMAO levels (uM) after 12 weeks on diet and TMAO supplementation; O) Body weight (g) over 20 weeks; and P) Glucose tolerance measured after 12 weeks on diet and TMAO supplementation. n=8-10 mice per diet group for all studies unless otherwise indicated. […] Statistical significance determined using student's t-test or two-way ANOVA where appropriate. […]

For the molecule `C[N+](C)(C)[O-]` [TMAO, trimethylamine-N-oxide], the “activation/recognition of TAAR5” value in experiment [1] is given as “does not recognize”.

As for `CN(C)C` [TMA, trimethylamine], the “activation/recognition of TAAR5” value in experiment [1] is listed as “known to activate”.

On to `C[N+](C)(CI)CCO` [IMC, iodomethyl choline], for which, in experiment [2], the “obesity driven by leptin deficiency” value is recorded as “improves obesity”. Moreover, the “obesity driven by high fat diet” value in experiment [3] is “improves obesity”.
